Target: T1, Full-length USP19 (Homo sapiens, UniProt O94966)
T1 construct: Full-length USP19 was purchased from Boston Biochem (E-576); purchased Boston Biochem E-576
T1 sequence (O94966 1-1318): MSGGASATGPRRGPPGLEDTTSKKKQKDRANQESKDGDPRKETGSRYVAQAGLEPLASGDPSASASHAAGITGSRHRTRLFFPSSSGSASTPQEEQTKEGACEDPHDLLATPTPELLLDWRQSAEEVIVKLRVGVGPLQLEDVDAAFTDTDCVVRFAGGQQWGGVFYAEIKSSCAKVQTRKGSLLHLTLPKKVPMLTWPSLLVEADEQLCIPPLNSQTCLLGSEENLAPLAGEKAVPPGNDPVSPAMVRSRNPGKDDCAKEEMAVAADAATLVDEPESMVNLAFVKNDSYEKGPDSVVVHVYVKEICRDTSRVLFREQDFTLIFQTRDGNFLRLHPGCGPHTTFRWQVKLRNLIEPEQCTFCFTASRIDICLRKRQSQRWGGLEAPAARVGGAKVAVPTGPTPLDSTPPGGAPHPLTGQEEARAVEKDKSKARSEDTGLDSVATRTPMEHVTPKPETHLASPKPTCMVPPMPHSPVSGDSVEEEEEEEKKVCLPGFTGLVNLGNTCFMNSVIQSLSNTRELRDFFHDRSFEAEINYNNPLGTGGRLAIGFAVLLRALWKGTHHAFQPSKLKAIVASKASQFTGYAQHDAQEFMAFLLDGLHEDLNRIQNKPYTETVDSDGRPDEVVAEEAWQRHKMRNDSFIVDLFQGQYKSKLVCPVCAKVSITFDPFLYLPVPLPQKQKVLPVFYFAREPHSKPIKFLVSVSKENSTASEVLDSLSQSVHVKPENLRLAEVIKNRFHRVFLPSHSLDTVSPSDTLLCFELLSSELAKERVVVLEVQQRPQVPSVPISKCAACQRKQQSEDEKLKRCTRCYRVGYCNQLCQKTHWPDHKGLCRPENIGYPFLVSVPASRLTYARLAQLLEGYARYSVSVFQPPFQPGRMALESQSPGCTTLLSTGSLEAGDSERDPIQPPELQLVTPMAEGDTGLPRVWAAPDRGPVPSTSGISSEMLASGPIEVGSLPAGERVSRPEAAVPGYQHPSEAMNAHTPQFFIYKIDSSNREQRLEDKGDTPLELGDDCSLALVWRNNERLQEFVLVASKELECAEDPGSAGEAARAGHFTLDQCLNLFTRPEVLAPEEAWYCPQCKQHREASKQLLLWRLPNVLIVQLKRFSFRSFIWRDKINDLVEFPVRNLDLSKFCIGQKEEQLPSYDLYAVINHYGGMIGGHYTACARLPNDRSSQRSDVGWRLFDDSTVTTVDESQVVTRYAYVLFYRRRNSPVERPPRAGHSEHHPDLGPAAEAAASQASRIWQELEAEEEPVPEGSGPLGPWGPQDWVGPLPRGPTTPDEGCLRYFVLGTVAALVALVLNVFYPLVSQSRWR
Test: USP19 fluorescence polarisation (FP) assay, Ubiquitin-Lys-TAMRA substrate
Type: biochemical
Conditions: average of at least two duplicate experiments
Summary of the method: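 Full-length human USP19 (added at 2.5 nM) was preincubated 30 min at RT with inhibitor (serial dilutions 200 μM to 2 μM) in 50 mM HEPES pH 7.4, 150 mM NaCl, 5 mM DTT, 0.05% BSA, 0.05% CHAPS. Ubiquitin-Lys-TAMRA isopeptide substrate (added at 500 nM) started the reaction, and FP (Ex 530/Em 575 nm) was read every 15 min over 90 min. IC50 came from non-linear regression of signal normalised to no-compound control, averaged over at least two duplicate experiments.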

Structure (SMILES) | IC50 [nM]
CNC(=O)[C@@H]1CCN(C(=O)N2CC[C@@H](Cn3cnc(-c4ccccc4)cc3=O)C3(CCCC3)C2)[C@H](c2ccccc2)C1 [Example 176, (2S,4R)-N-Methyl-1-((R)-10-((6-oxo-4-phenylpyrimidin-1(6H)-yl)methyl)-7-azaspiro[4.5]decane-7-carbonyl)-2-phenylpiperidine-4-carboxamide] | 100 to 1000
CN[C@@H]1CCN(C(=O)N2CC[C@@H](CN3CCOCC3=O)C3(CCCC3)C2)[C@H](c2cc(F)ccc2F)C1 [Example 159, 4-(((R)-7-((2S,4R)-2-(2,5-Difluorophenyl)-4-(methylamino)piperidine-1-carbonyl)-7-azaspiro[4.5]decan-10-yl)methyl)morpholin-3-one] | < 10
CN[C@@H]1CCN(C(=O)N2CC[C@@H](CN3CCC(c4ccccc4)=CC3=O)C3(CCCC3)C2)[C@H](c2cc(F)ccc2F)C1 [Example 168, 1-(((R)-7-((2S,4R)-2-(2,5-Difluorophenyl)-4-(methylamino)piperidine-1-carbonyl)-7-azaspiro[4.5]decan-10-yl)methyl)-4-phenyl-5,6-dihydropyridin-2(1H)-one] | < 10
CN[C@@H]1CCN(C(=O)N2CC[C@@H](Cn3ccc(-c4ccccc4OC)cc3=O)C3(CCCC3)C2)[C@H](c2cc(F)ccc2F)C1 [Example 113, 1-(((R)-7-((2S,4R)-2-(2,5-Difluorophenyl)-4-(methylamino)piperidine-1-carbonyl)-7-azaspiro[4.5]decan-10-yl)methyl)-4-(2-methoxyphenyl)pyridin-2(1H)-one] | < 10
COc1ccccc1-c1ccn(C[C@@H]2CCN(C(=O)N3CC[C@@H](N)C[C@H]3c3cccc(F)c3)CC23CCCC3)c(=O)c1 [Example 88, 1-(((R)-7-((2S,4R)-4-Amino-2-(3-fluorophenyl)piperidine-1-carbonyl)-7-azaspiro[4.5]decan-10-yl)methyl)-4-(2-methoxyphenyl)pyridin-2(1H)-one] | < 10
O=C(N1CC[C@@H](Cn2cnc(-c3ccccc3)cc2=O)C2(CCCC2)C1)N1CC[C@@H](NCCO)C[C@H]1c1ccccc1 [Example 161, 3-(((R)-7-((2S,4R)-4-((2-Hydroxyethyl)amino)-2-phenylpiperidine-1-carbonyl)-7-azaspiro[4.5]decan-10-yl)methyl)-6-phenylpyrimidin-4(3H)-one] | < 10
CN[C@@H]1CCN(C(=O)N2CC[C@@H](Cn3cnc(-c4ccccc4F)cc3=O)C3(CCCC3)C2)[C@H](c2cc(F)ccc2F)C1 [Example 145, 3-(((R)-7-((2S,4R)-2-(2,5-Difluorophenyl)-4-(methylamino)piperidine-1-carbonyl)-7-azaspiro[4.5]decan-10-yl)methyl)-6-(2-fluorophenyl)pyrimidin-4(3H)-one] | < 10
O=C(N1CC[C@@H](Cn2cnc3ccc(F)cc3c2=O)C2(CCCC2)C1)N1CC[C@@H](NCC(F)F)C[C@H]1c1cc(F)ccc1F [Example 157, 3-(((R)-7-((2S,4R)-4-((2,2-Difluoroethyl)amino)-2-(2,5-difluorophenyl)piperidine-1-carbonyl)-7-azaspiro[4.5]decan-10-yl)methyl)-6-fluoroquinazolin-4(3H)-one] | < 10
O=C(O)CN[C@@H]1CCN(C(=O)N2CC[C@@H](Cn3cnc(-c4ccccc4)cc3=O)C3(CCCC3)C2)[C@H](c2ccccc2)C1 [Example 106, Sodium ((2S,4R)-1-((R)-10-((6-Oxo-4-phenylpyrimidin-1(6H)-yl)methyl)-7-azaspiro[4.5]decane-7-carbonyl)-2-phenylpiperidin-4-yl)glycinate] | < 10
O=C(N1CC[C@@H](Cn2ccc(-c3ccccc3)cc2=O)C2(CCCC2)C1)N1CCNC[C@H]1c1ccccc1 (single isomer, unassigned) [Example 16] | < 10
Cc1ccn(CC2CCN(C(=O)N3CC[C@@H](N)C[C@H]3c3ccccc3)CC23CCCC3)c(=O)c1 (stereo partly drawn) [Example 39, 1-((7-((2S,4R)-4-Amino-2-phenylpiperidine-1-carbonyl)-7-azaspiro[4.5]decan-10-yl)methyl)-4-methylpyridin-2(1H)-one] | 10 to 100
C[C@H]1CN(C(=O)N2CC[C@@H](Cn3cnc(-c4ccccc4)cc3=O)C3(CCCC3)C2)[C@H](c2cc(F)ccc2F)CO1 [Example 201, 3-(((R)-7-((2,5R)-5-(2,5-Difluorophenyl)-2-methylmorpholine-4-carbonyl)-7-azaspiro[4.5]decan-10-yl)methyl)-6-phenylpyrimidin-4(3H)-one] | < 10
Cc1ccccc1-c1cc(=O)n(C[C@@H]2CCN(C(=O)N3CC[C@@H](N)C[C@H]3c3cc(F)ccc3F)CC23CCCC3)cn1 [Example 82, 3-(((R)-7-((2S,4R)-4-Amino-2-(2,5-difluorophenyl)piperidine-1-carbonyl)-7-azaspiro[4.5]decan-10-yl)methyl)-6-(o-tolyl)pyrimidin-4(3H)-one] | < 10
CN[C@@H]1CCN(C(=O)N2CC[C@@H](Cn3cnc(-c4ccccc4OC)cc3=O)C3(CCCC3)C2)[C@H](c2cccc(F)c2)C1 [Example 102, 3-(((R)-7-((2S,4R)-2-(3-Fluorophenyl)-4-(methylamino)piperidine-1-carbonyl)-7-azaspiro[4.5]decan-10-yl)methyl)-6-(2-methoxyphenyl)pyrimidin-4(3H)-one] | < 10
O=C(N1CC[C@@H](Cn2cnc(-c3ccccc3)cc2=O)C2(CCCC2)C1)N1CC[C@@H](NCc2ccccn2)C[C@H]1c1ccccc1 [Example 144, 6-Phenyl-3-(((R)-7-((2S,4R)-2-phenyl-4-((pyridin-2-ylmethyl)amino)piperidine-1-carbonyl)-7-azaspiro[4.5]decan-10-yl)methyl)pyrimidin-4(3H)-one] | < 10
CN[C@@H]1CCN(C(=O)N2CC[C@@H](Cn3cnc(-c4ccccc4F)cc3=O)C3(CCCC3)C2)[C@H](c2cccc(F)c2F)C1 [Example 140, 3-(((R)-7-((2S,4R)-2-(2,3-Difluorophenyl)-4-(methylamino)piperidine-1-carbonyl)-7-azaspiro[4.5]decan-10-yl)methyl)-6-(2-fluorophenyl)pyrimidin-4(3H)-one] | < 10
O=C(N[C@@H]1CCN(C(=O)N2CC[C@@H](Cn3ccc(-c4ccccc4)cc3=O)C3(CCCC3)C2)[C@H](c2ccccc2)C1)C1CC1 [Example 96, N-((2S,4R)-1-((R)-10-((2-Oxo-4-phenylpyridin-1(2H)-yl)methyl)-7-azaspiro[4.5]decane-7-carbonyl)-2-phenylpiperidin-4-yl)cyclopropanecarboxamide] | 10 to 100
CN[C@@H]1CCN(C(=O)N2CC[C@@H](Cn3ccc(-c4ccccc4C)cc3=O)C3(CCCC3)C2)[C@H](c2ccccc2)C1 [Example 54, 1-(((R)-7-((2S,4R)-4-(Methylamino)-2-phenylpiperidine-1-carbonyl)-7-azaspiro[4.5]decan-10-yl)methyl)-4-(o-tolyl)pyridin-2(1H)-one] | < 10
CC1(C)CN(C(=O)N2CC[C@@H](N)C[C@H]2c2ccccc2)CC[C@H]1Cn1ccc(-c2ccccc2)cc1=O [Example 69, 1-(((R)-1-((2S,4R)-4-Amino-2-phenylpiperidine-1-carbonyl)-3,3-dimethylpiperidin-4-yl)methyl)-4-phenylpyridin-2(1H)-one] | < 10
CC1(N[C@@H]2CCN(C(=O)N3CC[C@@H](Cn4ccc(-c5ccccc5)cc4=O)C4(CCCC4)C3)[C@H](c3ccccc3)C2)COC1 [Example 111, 1-(((R)-7-((2S,4R)-4-((3-Methyloxetan-3-yl)amino)-2-phenylpiperidine-1-carbonyl)-7-azaspiro[4.5]decan-10-yl)methyl)-4-phenylpyridin-2(1H)-one] | < 10
CN[C@@H]1CCN(C(=O)N2CC[C@@H](Cn3ccc(-c4ccccc4)cc3=O)C3(CCCC3)C2)[C@H](c2cc(F)cc(F)c2)C1 [Example 121, 1-(((R)-7-((2S,4R)-2-(3,5-Difluorophenyl)-4-(methylamino)piperidine-1-carbonyl)-7-azaspiro[4.5]decan-10-yl)methyl)-4-phenylpyridin-2(1H)-one] | < 10

Source: patent US20240327382A1 (ALMAC DISCOVERY LIMITED, priority 2021, published 2024)
